Legend:
anti-ss DNA antibody = test: Mouse model with spontaneous onset of SLE: production of anti-ss DNA antibody; assay type: in vivo, female (NZB×NZW) F1 mice
Method: (§1) In this experiment, female (NZB×NZW) F1 mice were used. Administration of each test compound was initiated at the age of 16 weeks, and blood was collected at predetermined intervals from the orbital venous plexus of the animals under anesthesia with ether and examined for anti-DNA (single-stranded chain: ss, double stranded chain: ds) antibody titer in serum. Further, urine was collected and measured for urine protein.
(§2) The medium was administered into the control group.

[1] = tested on: anti-rabbit γ-globulin IgG2a antibody titer; test: Rat model producing antibody (anti-rabbit γ-globulin antibody titer in serum, ELISA); assay type: in vivo, Sprague-Dawley strain rats; details: dose 0.3 mg/kg oral once every day for 14 days; 14th day after immunization
Method: Sprague-Dawley strain rats were immunized by subcutaneously administering rabbit γ-globulin in a dose of 4 mg/rat along with Freund's complete adjuvant into the bottoms of their both hind legs. On the 14th day after the rats were immunized, blood was collected from their tail veins and examined for anti-rabbit γ-globulin antibody titer in serum by the ELISA method.
The test compounds A, B, C and D were suspended respectively in 0.5% aqueous methyl cellulose solution and orally administered once every day for 14 days from the day on which the animals were immunized with rabbit γ-globulin. The medium was administered into the control group.

[2] = tested on: albuminuria in (NZB×NZW)F1 mice; test: Mouse model with spontaneous onset of SLE: urine protein / onset of albuminuria; assay type: in vivo, female (NZB×NZW) F1 mice; details: for Number of animals with Concentration of Urine Protein (mg/ml) <0.3 / Number of animals with Concentration of Urine Protein (mg/ml) >0.3 / Number of animals with Concentration of Urine Protein (mg/ml) >1 / Number of animals with Concentration of Urine Protein (mg/ml) >3 / Number of animals with Concentration of Urine Protein (mg/ml) >10: after 18 weeks of administration (34-week-old), 8 animals
Text: as §1
The test compounds A, B and D were suspended in 0.5% aqueous methyl cellulose solution and orally administered daily once into the animals for 6 days/week for 18 weeks. The medium was administered into the control group.
The effect of each compound on the onset of albuminuria after 18 weeks of administration (in 34-week-old animals) is shown in Table 2.

[3] = tested on: anti-dinitrophenyl (DNP) IgG2a antibody titer; test: Mouse model producing antibody (anti-DNP IgG2a antibody titer in serum, ELISA); assay type: in vivo, BALB/c mice; details: dose 0.1 mg/kg oral once every day for 10 days; 10th day after immunization
Method: BALB/c mice were immunized by administering dinitrophenylated keyhole limpet hemocyanin (DNP-KLH) as antigen intraperitoneally into them in a dose of 100 μg/mouse along with Freund's complete adjuvant. On the 10th day after the day on which the mice were immunized, blood was collected from the orbital venous plexus of the animals under anesthesia with ether and examined for anti-dintrophenyl (DNP) IgG2a antibody titer in serum by the ELISA method.
The test compounds B, E, F, G and H were suspended in 0.5% aqueous methyl cellulose solution and orally administered into the animals once every day for 10 days from the day when the animals were immunized with DNP-KLH. The medium was administered into the control group.

[4] = tested on: accelerated Masugi nephritis; test: Rat model with accelerated Masugi nephritis (proteins excreted in urine for 24 hours); assay type: in vivo, Sprague-Dawley strain rats; details: dose 0.3 mg/kg, oral once every day; compared with the control group; 0.3 mg/kg
Method: Sprague-Dawley strain rats were immunized by subcutaneously administering rabbit γ-globulin in a dose of 4 mg/rat along with Freund's complete adjuvant into the bottoms of their both hind legs. On the 5th day after the rats were immunized, 1 ml of anti-rat glomerular basement membrane rabbit serum diluted 6- or 8-fold was administered via tail veins into the animals. On the 8th day, the rats were forced to be orally administered 8 ml sterilized water and then placed in a metabolism cage, and their urine was collected for 24 hours during which the animals were allowed neither food nor water. As the indicator of the model with accelerated Masugi nephritis, the amount of proteins excreted in urine for 24 hours was used.
as §2

human RARα = biological target: T1, human RARα (Homo sapiens, UniProt P10276); test: Transcription-promoting activity via RAR (PLAP reporter in COS-1 cells), RAR-α; assay type: cell-based; parameters: expressed in transfected cells; host or cells: COS-1 (African green monkey kidney), transient lipofection; details: Relative ED30: ED30 of all-trans-retinoic acid for each receptor = 1
T1 sequence (P10276 1-462): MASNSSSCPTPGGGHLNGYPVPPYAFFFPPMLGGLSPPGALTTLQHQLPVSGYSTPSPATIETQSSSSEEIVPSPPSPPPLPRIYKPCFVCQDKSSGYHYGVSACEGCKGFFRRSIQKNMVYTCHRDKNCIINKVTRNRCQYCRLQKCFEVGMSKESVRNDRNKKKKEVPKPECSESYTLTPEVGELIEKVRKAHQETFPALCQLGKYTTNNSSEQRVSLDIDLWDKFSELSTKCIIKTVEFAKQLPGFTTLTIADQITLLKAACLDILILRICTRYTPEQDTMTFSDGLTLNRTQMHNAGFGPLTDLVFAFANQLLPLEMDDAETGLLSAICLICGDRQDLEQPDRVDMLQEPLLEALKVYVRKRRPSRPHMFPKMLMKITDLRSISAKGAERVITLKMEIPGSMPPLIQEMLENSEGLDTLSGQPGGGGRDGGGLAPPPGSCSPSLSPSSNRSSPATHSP
Method: (§3) A human RAR expression vector and a secretory alkali phosphatase (PLAP) gene vector (PLAP vector) having a response sequence integrated upstream for allowing RAR-bound PLAP to be expressed depending on ligand, were tentatively introduced into COS-1 (renal cell line derived from African green monkey). The PLAP, which was produced depending on ligand and secreted into a culture liquid, was measured by chemiluminescence techniques to examine the transcription-promoting activity of each test compound. Further, the ability of the test compound to promote the transcription of each receptor subtype was compared to determine the selectivity of the compound for RAR subtype.
(§4) 2.5×10^4 COS-1 cells were plated onto a 60-mm Petri dish, and after 4 days, the cells were transformed by lipofection with 4 μg expression vector for human RARα, RARβ or RARγ and 4 μg PLAP vector. After 1 day, the cells were recovered and plated at a density of 2×10^4 cells/well on a 96-well culture plate. After 4 hours, the medium was exchanged with a charcoal treated FBS-containing medium, then a diluted solution of all-trans-retinoic acid or a test compound was added thereto, and after 36 hours, the supernatant was recovered from the cell culture. The recovered sample was treated for 10 minutes at 65° C. to eliminate unspecific activity. 15 μl of the sample was mixed with 60 μl of 28 mM sodium carbonate buffer (pH 10) and reacted with 75 μl of a chemifluorescent substrate Smilight™ (Sumitomo Metal Industries, Ltd.) at 37° C. for 30 minutes to determine the […].
(§5) The concentration (ED30) of each test compound showing 30% activity, where it was assumed that the average transcriptional activity induced by and 3 μM all-trans-retinoic acid was 100%, was determined. Then, the relative ED30 of each compound, where it was assumed that the ED30 of all-trans-retinoic acid for each receptor was 1, is shown as Relative ED30* in Tables 4-1 and 4-2.

human RARγ = biological target: T2, human RARγ (Homo sapiens, UniProt P13631); test: Transcription-promoting activity via RAR (PLAP reporter in COS-1 cells), RAR-γ; assay type: cell-based; parameters: expressed in transfected cells; host or cells: COS-1 (African green monkey kidney), transient lipofection; details: Relative ED30: ED30 of all-trans-retinoic acid for each receptor = 1
T2 sequence (P13631 1-454): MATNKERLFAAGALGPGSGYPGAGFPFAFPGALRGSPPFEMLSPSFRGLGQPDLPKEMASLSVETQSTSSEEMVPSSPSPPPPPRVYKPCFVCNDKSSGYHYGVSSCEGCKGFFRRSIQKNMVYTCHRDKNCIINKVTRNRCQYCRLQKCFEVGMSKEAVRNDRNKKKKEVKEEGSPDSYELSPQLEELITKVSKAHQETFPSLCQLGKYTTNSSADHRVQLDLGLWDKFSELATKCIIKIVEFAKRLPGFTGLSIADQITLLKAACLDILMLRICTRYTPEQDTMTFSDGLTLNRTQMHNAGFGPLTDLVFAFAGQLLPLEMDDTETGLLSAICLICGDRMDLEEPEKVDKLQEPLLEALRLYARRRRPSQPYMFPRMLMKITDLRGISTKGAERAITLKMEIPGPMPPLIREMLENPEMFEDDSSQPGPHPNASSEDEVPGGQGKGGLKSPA
Method: as §3, §4, §5

human RARβ = biological target: T3, human RARβ (Homo sapiens, UniProt P10826); test: Transcription-promoting activity via RAR (PLAP reporter in COS-1 cells), RAR-β; assay type: cell-based; parameters: expressed in transfected cells; host or cells: COS-1 (African green monkey kidney), transient lipofection; details: Relative ED30: ED30 of all-trans-retinoic acid for each receptor = 1
T3 sequence (P10826 1-455): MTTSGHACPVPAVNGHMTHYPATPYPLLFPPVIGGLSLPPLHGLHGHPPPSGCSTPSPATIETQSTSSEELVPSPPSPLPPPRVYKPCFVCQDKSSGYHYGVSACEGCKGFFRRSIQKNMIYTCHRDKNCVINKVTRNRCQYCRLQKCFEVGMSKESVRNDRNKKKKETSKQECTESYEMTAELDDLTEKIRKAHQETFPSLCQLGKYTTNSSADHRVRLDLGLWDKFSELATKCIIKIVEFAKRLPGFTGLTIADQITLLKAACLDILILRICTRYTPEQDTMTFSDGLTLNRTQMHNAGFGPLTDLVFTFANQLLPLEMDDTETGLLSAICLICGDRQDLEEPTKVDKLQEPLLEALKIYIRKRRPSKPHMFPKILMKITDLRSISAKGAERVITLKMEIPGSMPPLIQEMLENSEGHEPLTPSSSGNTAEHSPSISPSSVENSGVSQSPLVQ
Method: as §3, §4, §5

anti-ds DNA antibody = test: Mouse model with spontaneous onset of SLE: production of anti-ds DNA antibody; assay type: in vivo, female (NZB×NZW) F1 mice; details: 50 mg/kg; examined in the same manner
Method: as §1, §2

[5] = dose 0.03 mg/kg, after 18 weeks of administration

Row | Transcription promoting activity ED30* RAR-α (human RARα) | Transcription promoting activity ED30* RAR-γ (human RARγ) | Transcription promoting activity ED30* RAR-β (human RARβ) | Molecule | effect on anti-rabbit γ-globulin IgG2a antibody titer [1] | Degree of Inhibition of Albuminuria (%) [4] [%] | other results
1 | – | – | – | O=C(O)c1ccc(-c2ccc(-c3cc4c(C(F)(F)F)ccc(F)c4o3)[nH]2)cc1 [Compound B, 4-{2-[5-(7-fluoro-4-trifluoromethylbenzofuran-2-yl)pyrrolyl]}benzoic acid] | inhibited significantly | 90.7 | inhibition of production of anti-ss DNA antibody (in words) (anti-ss DNA antibody; 0.03 mg/kg oral, after 16 weeks of administration): significant inhibition; onset of albuminuria (in words) [2, 5]: complete inhibition; Number of animals with Concentration of Urine Protein (mg/ml) <0.3 ([2]; dose 0.03 mg/kg): 8; Number of animals with Concentration of Urine Protein (mg/ml) >0.3 ([2]; dose 0.03 mg/kg): 0; Number of animals with Concentration of Urine Protein (mg/ml) >1 ([2]; dose 0.03 mg/kg): 0; Number of animals with Concentration of Urine Protein (mg/ml) >3 ([2]; dose 0.03 mg/kg): 0; Number of animals with Concentration of Urine Protein (mg/ml) >10 ([2]; dose 0.03 mg/kg): 0; effect on anti-DNP IgG2a [3]: significantly inhibited
2 | – | – | – | Cc1ccc(C)c2c(F)c(-c3ccc(-c4ccc(C(=O)O)cc4)[nH]3)oc12 [Compound C, 4-{2-[5-(3-fluoro-4,7-dimethylbenzofuran-2-yl)pyrrolyl]}benzoic acid] | inhibited significantly | 87.7 | –
3 | – | – | – | CCc1ccc(C)c2cc(-c3ccc(-c4ccc(C(=O)O)cc4)[nH]3)oc12 [Compound D, 4-{2-[5-(7-ethyl-4-methylbenzofuran-2-yl)pyrrolyl]}benzoic acid] | inhibited significantly | 80.3 | onset of albuminuria (in words) [2, 5]: complete inhibition; Number of animals with Concentration of Urine Protein (mg/ml) <0.3 ([2]; dose 0.03 mg/kg): 8; Number of animals with Concentration of Urine Protein (mg/ml) >0.3 ([2]; dose 0.03 mg/kg): 0; Number of animals with Concentration of Urine Protein (mg/ml) >1 ([2]; dose 0.03 mg/kg): 0; Number of animals with Concentration of Urine Protein (mg/ml) >3 ([2]; dose 0.03 mg/kg): 0; Number of animals with Concentration of Urine Protein (mg/ml) >10 ([2]; dose 0.03 mg/kg): 0
4 | 0.21 | 1.9 | 1.4 | CC1(C)CCC(C)(C)c2nc(-c3ccc(-c4ccc(C(=O)O)cc4)[nH]3)cnc21 [drawing 26] | – | – | –
5 | 0.2 | 170 | 11 | CC1(C)CCCc2ncc(-c3ccc(-c4ccc(C(=O)O)cc4)[nH]3)nc21 [drawing 27] | – | – | –
6 | 1.4 | 20 | 7.4 | CC1CCCN(C)c2ncc(-c3ccc(-c4ccc(C(=O)O)cc4)[nH]3)nc21 (stereo not shown) [drawing 28] | – | – | –
7 | 0.85 | 89 | 14 | CCn1nc(-c2ccc(-c3ccc(C(=O)O)cc3)[nH]2)cc1C(C)C [drawing 29] | – | – | –
8 | – | – | – | cyclosporin A [reference compound] | – | – | inhibition of production of anti-ss DNA antibody (anti-ss DNA antibody; 50 mg/kg, examined in the same manner, significant): about 85%; inhibition of production of anti-ds DNA antibody (in words) (anti-ds DNA antibody): did not inhibit; Number of animals with Concentration of Urine Protein (mg/ml) <0.3 ([2]; dose 50 mg/kg): 5; Number of animals with Concentration of Urine Protein (mg/ml) >0.3 ([2]; dose 50 mg/kg): 1; Number of animals with Concentration of Urine Protein (mg/ml) >1 ([2]; dose 50 mg/kg): 2; Number of animals with Concentration of Urine Protein (mg/ml) >3 ([2]; dose 50 mg/kg): 0; Number of animals with Concentration of Urine Protein (mg/ml) >10 ([2]; dose 50 mg/kg): 0; onset of albuminuria (in words) ([2]; dose 50 mg/kg, not statistically significant): showed inhibition

Row | Molecule | Transcription promoting activity ED30* RAR-α (human RARα) | Transcription promoting activity ED30* RAR-γ (human RARγ) | Transcription promoting activity ED30* RAR-β (human RARβ) | effect on anti-rabbit γ-globulin IgG2a antibody titer [1] | Degree of Inhibition of Albuminuria (%) [4] [%] | other results
9 | COCc1cc2c(cc1-c1ccc(-c3ccc(C(=O)O)cc3)[nH]1)C(C)(C)CCC2(C)C [drawing 30] | 1.9 | 62 | 29 | – | – | –
10 | C[Si](C)(C)c1cc(C(=O)Nc2ccc(C(=O)O)cc2)cc([Si](C)(C)C)c1 [drawing 31] | 6 | 7800 | 420 | – | – | –

Source: patent US6355669B1, “Retinoic acid agonists as preventive and therapeutic agents for nephritis” (Eisai Co., Ltd., priority 1997, dated 2002)
